Our source for the IC50 values is ChEMBL document CHEMBL5625242, “Discovery of brain permeable 2-Azabicyclo[2.2.2]octane sulfonamides as a novel class of presenilin-1 selective γ-secretase inhibitors” (Eur J Med Chem, 2023).

The structures appear in SMILES notation.

Common to all, as to type: cell-based
Assay [1] can be described thus: Inhibition of human PSEN1/APH1A expressed in MEF cells with Psen1/2 double knockout/Aph1ABC triple knockout by ELISA.
Assay [2] can be described thus: Inhibition of human PSEN1/APH1B expressed in MEF cells with Psen1/2 double knockout/Aph1ABC triple knockout by ELISA. For orientation: ELISA stands for enzyme-linked immunosorbent assay.
A short description of assay [3]: Inhibition of human PSEN2/APH1B expressed in MEF cells with Psen1/2 double knockout/Aph1ABC triple knockout by ELISA.
Assay [4] in a line: Inhibition of human PSEN2/APH1A expressed in MEF cells with Psen1/2 double knockout/Aph1ABC triple knockout by ELISA.

A word on the IC50: it is the point on the concentration scale where inhibition reaches its midpoint. A low value points to greater potency. With `Cc1ccc(S(=O)(=O)N2[C@H]3CC[C@@H]([C@H]2c2ccc(C(F)(F)F)cc2)[C@@H](O)C3)cc1` (racemic), the IC50 in assay [1] was 208 nM; in assay [2], 50 nM; in assay [3], greater than 8000 nM; in assay [4] it was greater than 8000 nM.

With `CC(=O)Nc1ccc([C@@H]2[C@@H]3CC[C@@H](CC3=O)N2S(=O)(=O)c2ccc(Cl)s2)cc1` (racemic), the IC50 in assay [1] is 3020 nM; in assay [2], 389 nM; in assay [3], 8000 nM; in assay [4] it was 8500 nM.

Turning to `O=C1C[C@@H]2CC[C@H]1[C@@H](c1ccc(F)c(F)c1)N2S(=O)(=O)c1ccc(Cl)s1` (racemic), the IC50 in assay [1] was greater than 10000 nM; in assay [2], 1950 nM; in assay [3] it was greater than 10000 nM; in assay [4] it was greater than 10000 nM.

As to `CCNC(=O)Nc1ccc([C@@H]2[C@@H]3CC[C@@H](CC3=O)N2S(=O)(=O)c2ccc(Cl)cc2)cc1` (racemic), the IC50 in assay [1] is 3800 nM; in assay [2], 389 nM; in assay [3] it was 8500 nM; in assay [4], 7000 nM.

With `CCOC(=O)Nc1ccc([C@@H]2[C@@H]3CC[C@@H](C[C@@H]3O)N2S(=O)(=O)c2ccc(Cl)cc2)cc1` (racemic), the IC50 is 190 nM in assay [1], 29 nM in assay [2], 912 nM in assay [3] and 288 nM in assay [4].

Consider `O=S(=O)(c1ccc(Cl)cc1)N1[C@H]2CC[C@@H]([C@H]1c1ccc(Cl)cc1)[C@@H](O)C2` (racemic), for which the IC50 in assay [1] was 147 nM; in assay [2] it was 46 nM; in assay [3] it was greater than 2000 nM; in assay [4], greater than 2000 nM.

Take `O=S(=O)(c1ccc(Cl)cc1)N1[C@H]2CC[C@@H]([C@H]1c1ccc(F)c(F)c1)[C@@H](O)C2` (racemic): the 50% inhibitory concentration (IC50) was 295 nM in assay [1], 58 nM in assay [2], greater than 10000 nM in assay [3] and greater than 10000 nM in assay [4].

Regarding `O=C1C[C@@H]2CC[C@H]1[C@@H](c1ccc(C(F)(F)F)cc1)N2S(=O)(=O)c1ccccc1Cl` (racemic), the IC50 was greater than 10000 nM in assay [1], 5890 nM in assay [2], greater than 10000 nM in assay [3] and greater than 10000 nM in assay [4].

In the case of `COc1ccc([C@@H]2[C@@H]3CC[C@@H](C[C@@H]3O)N2S(=O)(=O)c2ccc(Cl)cc2)cn1` (racemic), the IC50 in assay [1] was 380 nM; in assay [2], 62 nM; in assay [3], greater than 10000 nM; in assay [4], greater than 10000 nM.

As to `Cc1ccc(S(=O)(=O)N2[C@H]3CC[C@@H]([C@H]2c2ccc(C#N)nc2)[C@@H](O)C3)cc1` (racemic), the IC50 in assay [1] was 1100 nM; in assay [2] it was 158 nM; in assay [3] it was greater than 10000 nM; in assay [4], greater than 10000 nM.

Regarding `O=C1C[C@@H]2CC[C@H]1[C@@H](c1ccc(Cl)cc1)N2S(=O)(=O)c1ccc(Cl)s1` (racemic), the IC50 was 2240 nM in assay [1], 281 nM in assay [2], greater than 10000 nM in assay [3] and greater than 10000 nM in assay [4].

As for `N#Cc1ccc([C@@H]2[C@@H]3CC[C@@H](CC3=O)N2S(=O)(=O)c2ccc(Cl)cc2)c(F)c1` (racemic), the IC50 in assay [1] turned out to be 691 nM; in assay [2], 131 nM; in assay [3] it was 7580 nM; in assay [4], 3390 nM.

`O=S(=O)(c1ccc(Cl)cc1)N1[C@H]2CC[C@@H]([C@H]1c1ccc(C(F)(F)F)nc1)[C@@H](O)C2` (racemic): the IC50 is 263 nM in assay [1], 38 nM in assay [2], greater than 2000 nM in assay [3] and greater than 2000 nM in assay [4].

For the molecule `CC(=O)Nc1ccc([C@@H]2[C@@H]3CC[C@@H](C[C@@H]3O)N2S(=O)(=O)c2ccc(Cl)s2)cc1` (racemic), the IC50 in assay [1] is 72.4 nM; in assay [2], 26 nM; in assay [3] it was 851 nM; in assay [4], 513 nM.

For the molecule `O=S(=O)(c1ccc(Cl)cc1)N1[C@H]2CC[C@H]([C@H](O)C2)[C@H]1c1ccccc1Cl` (racemic), the IC50 is 2240 nM in assay [1], 426 nM in assay [2], greater than 10000 nM in assay [3] and greater than 10000 nM in assay [4].

`O=S(=O)(c1ccc(Cl)cc1)N1[C@H]2CC[C@@H]([C@H]1c1ccccc1)[C@@H](O)C2` (racemic): the IC50 in assay [1] came to 102 nM; in assay [2], 14 nM; in assay [3], 602 nM; in assay [4], 426 nM.

Take `O=S(=O)(c1ccc(Cl)cc1)N1[C@H]2CC[C@H]([C@H](O)C2)[C@H]1c1ccc(C(F)(F)F)nc1` (racemic): the half-inhibitory concentration (IC50) is 6460 nM in assay [1], 776 nM in assay [2], greater than 10000 nM in assay [3] and greater than 10000 nM in assay [4].

With `CCNC(=O)Nc1ccc([C@@H]2[C@@H]3CC[C@@H](C[C@@H]3O)N2S(=O)(=O)c2ccc(Cl)cc2)cc1` (racemic), the IC50 amounted to 446 nM in assay [1], 79.4 nM in assay [2], 4790 nM in assay [3] and 2340 nM in assay [4].

Consider `CC(=O)Nc1ccc([C@@H]2[C@@H]3CC[C@@H](CC3=O)N2S(=O)(=O)c2ccc(Cl)cc2)cc1` (racemic), for which the IC50 in assay [1] is 6310 nM; in assay [2] it was 709 nM; in assay [3], greater than 10000 nM; in assay [4], greater than 10000 nM.

For `O=C1C[C@@H]2CC[C@H]1[C@@H](c1ccccc1Cl)N2S(=O)(=O)c1ccc(Cl)cc1` (racemic), the IC50 in assay [1] is 2630 nM; in assay [2] it was 389 nM; in assay [3] it was greater than 10000 nM; in assay [4], greater than 10000 nM.

As for `O=S(=O)(c1ccc(Cl)s1)N1[C@H]2CC[C@@H]([C@H]1c1ccc(F)c(F)c1)[C@@H](O)C2` (racemic), the IC50 in assay [1] is 398 nM; in assay [2], 74 nM; in assay [3], greater than 10000 nM; in assay [4], greater than 10000 nM.

For the molecule `N#Cc1ccc([C@@H]2[C@@H]3CC[C@@H](C[C@@H]3O)N2S(=O)(=O)c2ccc(Cl)s2)cn1` (racemic), the IC50 turned out to be 147 nM in assay [1], 39 nM in assay [2], 3390 nM in assay [3] and 3020 nM in assay [4].

`COCC(=O)Nc1ccc([C@@H]2[C@@H]3CC[C@@H](CC3=O)N2S(=O)(=O)c2ccc(Cl)cc2)cc1` (racemic): the IC50 in assay [1] was greater than 10000 nM; in assay [2] it was 1440 nM; in assay [3], greater than 10000 nM; in assay [4] it was greater than 10000 nM.

`N#Cc1ccc([C@@H]2[C@@H]3CC[C@@H](C[C@@H]3O)N2S(=O)(=O)c2ccc(Cl)cc2)cc1` (racemic): the IC50 is 64 nM in assay [1], 12 nM in assay [2], 631 nM in assay [3] and 758 nM in assay [4].

As to `O=S(=O)(c1ccc(Cl)cc1)N1[C@H]2CC[C@H]([C@H](O)C2)[C@H]1c1ccc(C(F)(F)F)cc1` (racemic), the IC50 in assay [1] was 758 nM; in assay [2], 109 nM; in assay [3], greater than 10000 nM; in assay [4] it was greater than 10000 nM.

Take `COCC(=O)Nc1ccc([C@@H]2[C@@H]3CC[C@@H](C[C@@H]3O)N2S(=O)(=O)c2ccc(Cl)cc2)cc1` (racemic): the IC50 in assay [1] was determined as 208 nM; in assay [2], 52 nM; in assay [3], 2000 nM; in assay [4], 1410 nM.

Consider `CC(=O)Nc1ccc([C@@H]2[C@@H]3CC[C@@H](C[C@@H]3O)N2S(=O)(=O)c2ccc(Cl)cc2)cc1` (racemic), for which the IC50 in assay [1] was 135 nM; in assay [2] it was 24.5 nM; in assay [3] it was greater than 1300 nM; in assay [4] it was 1200 nM.

For the molecule `O=S(=O)(c1ccc(Cl)cc1)N1[C@H]2CC[C@H]([C@H](O)C2)[C@H]1c1ccc(C(F)(F)F)cc1`, the figures for the IC50 in assay [1] and in assay [2] were 759 nM and 110 nM, respectively.

On to `O=C1C[C@@H]2CC[C@H]1[C@@H](c1ccc(C(F)(F)F)cc1)N2S(=O)(=O)c1ccc(F)cc1` (racemic), for which the IC50 in assay [1] is 1000 nM; in assay [2], 208 nM; in assay [3] it was greater than 10000 nM; in assay [4], greater than 10000 nM.

For the molecule `N#Cc1ccc([C@@H]2[C@@H]3CC[C@@H](CC3=O)N2S(=O)(=O)c2ccc(Cl)cc2)cc1` (racemic), the half-maximal inhibitory concentration (IC50) in assay [1] was 891 nM; in assay [2], 234 nM; in assay [3] it was greater than 8000 nM; in assay [4] it was greater than 8000 nM.

Regarding `N#Cc1ccc([C@@H]2[C@@H]3CC[C@@H](C[C@H]3O)N2S(=O)(=O)c2ccc(Cl)cc2)cn1`, the IC50 in assay [1], in assay [2], in assay [3] and in assay [4] was greater than 10000 nM in each case.

With `O=S(=O)(c1ccc(Cl)s1)N1[C@H]2CC[C@@H]([C@H]1c1ccc(Cl)cc1)[C@@H](O)C2` (racemic), the IC50 in assay [1] was 199 nM; in assay [2], 58 nM; in assay [3], greater than 2000 nM; in assay [4], greater than 2000 nM.

As to `O=S(=O)(c1ccc(Cl)cc1)N1[C@H]2CC[C@H]([C@H](O)C2)[C@H]1c1cc(F)ccc1F` (racemic), the IC50 was found to be 851 nM in assay [1], 427 nM in assay [2], 7760 nM in assay [3] and 7760 nM in assay [4].

In the case of `O=C1C[C@@H]2CC[C@H]1[C@@H](c1ccc(C(F)(F)F)nc1)N2S(=O)(=O)c1ccc(Cl)s1` (racemic), the IC50 was 1900 nM in assay [1], 588 nM in assay [2], greater than 10000 nM in assay [3] and greater than 10000 nM in assay [4].

On to `O=S(=O)(c1ccc(Cl)cc1)N1[C@H]2CC[C@@H]([C@H]1c1ccc(OC(F)(F)F)cc1)[C@@H](O)C2` (racemic), for which the IC50 in assay [1] is 151 nM; in assay [2], 37 nM; in assay [3] it was greater than 10000 nM; in assay [4], greater than 10000 nM.
